Reference: US11020395B2, “Cycloalkyl substituted triazole compounds as agonists of the APJ receptor” (AMGEN INC., priority 2016, dated 2021)

biological target: human APJ receptor (Homo sapiens (Human), UniProt P35414); experiment: [35S]GTPγS binding assay on membranes from CHO cells stably expressing human APJ receptor; assay type: biochemical; conditions: [35S]GTPγS SPA, read-out: Activity hAPJ SPA EC50 IP
How it was run: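 Membranes from CHO cells stably expressing FLAG-tagged human APJ were incubated with [35S]GTPγS in buffer with optimized GDP, MgCl2 and NaCl, 90 min at RT. EC50 values derived by non-linear regression, averaged over several independent experiments.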

Sequence of human APJ receptor (P35414 whole entry): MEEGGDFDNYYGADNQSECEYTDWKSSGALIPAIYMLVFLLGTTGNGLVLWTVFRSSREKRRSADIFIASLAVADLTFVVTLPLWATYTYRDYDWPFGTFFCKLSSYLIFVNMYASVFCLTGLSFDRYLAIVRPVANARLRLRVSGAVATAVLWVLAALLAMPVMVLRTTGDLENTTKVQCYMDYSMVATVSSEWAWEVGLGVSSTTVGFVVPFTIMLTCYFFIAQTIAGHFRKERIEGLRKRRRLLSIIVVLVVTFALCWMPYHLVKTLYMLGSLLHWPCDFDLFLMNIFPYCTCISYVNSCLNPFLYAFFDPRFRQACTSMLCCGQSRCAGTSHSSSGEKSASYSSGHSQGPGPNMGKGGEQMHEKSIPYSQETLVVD

Row | Compound | EC50 [µM]
1 | COc1ncnc(OC)c1-n1c(NS(=O)(=O)[C@@H](C)[C@@H](OC(C)C)c2ncc(Cl)cn2)nnc1[C@@H]1CC[C@@H]1C(F)F (single isomer, unassigned) [Example 167.0, (1S,2S)-1-(5-chloropyrimidin-2-yl)-N-(5-((1R,2S)-2-(difluoromethyl)cyclobutyl)-4-(4,6-dimethoxypyrimidin-5-yl)-4H-1,2,4-triazol-3-yl)-1-isopropoxypropane-2-sulfonamide or (1S,2S)-1-(5-chloropyrimidin-2-yl)-N-(5-((1S,2R)-2-(difluoromethyl)cyclobutyl)-4-(2,6-dimethoxypyrimidin-5-yl)-4H-1,2,4-triazol-3-yl)-1-isopropoxypropane-2-sulfonamide] | 0.013
2 | COc1ncnc(OC)c1-n1c(NS(=O)(=O)[C@@H](C)[C@@H](OC(C)C)c2ncc(Cl)cn2)nnc1[C@@H]1CC[C@@H]1C(F)F (single isomer, unassigned) [Example 168.0, (1S,2S)-1-(5-chloropyrimidin-2-yl)-N-(5-((1R,2S)-2-(difluoromethyl)cyclobutyl)-4-(4,6-dimethoxypyrimidin-5-yl)-4H-1,2,4-triazol-3-yl)-1-isopropylpropane-2-sulfonamide or (1S,2S)-1-(5-chloropyrimidin-2-yl)-N-(5-((1S,2R)-2-(difluoromethyl)cyclobutyl)-4-(4,6-dimethoxypyrimidin-5-yl)-4H-1,2,4-triazol-3-yl)-1-isopropoxypropane-2-sulfonamide] | 0.008
3 | COc1cccc(OC)c1-n1c(NS(=O)(=O)[C@@H](C)[C@H](OC)c2ncc(Cl)cn2)nnc1C1CCC1C#N (single isomer, unassigned) [Example 169.0, (1R,2S)-1-(5-chloropyrimidin-2-yl)-N-(5-((1R,2S)-2-cyanocyclobutyl)-4-(2,6-dimethoxyphenyl)-4H-1,2,4-triazol-3-yl)-1-methoxypropane-2-sulfonamide or (1R,2S)-1-(5-chloropyrimidin-2-yl)-N-(5-((1S,2R)-2-cyanocyclobutyl)-4-(2,6-dimethoxyphenyl)-4H-1,2,4-triazol-3-yl)-1-methoxypropane-2-sulfonamide] | 0.021
4 | COc1cccc(OC)c1-n1c(NS(=O)(=O)[C@@H](C)[C@H](OC)c2ncc(Cl)cn2)nnc1C1CCC1C#N (single isomer, unassigned) [Example 170.0, (1R,2S)-1-(5-chloropyrimidin-2-yl)-N-(5-((1R,2R)-2-cyanocyclobutyl)-4-(2,6-dimethoxyphenyl)-4H-1,2,4-triazol-3-yl)-1-methoxypropane-2-sulfonamide or (1R,2S)-1-(5-chloropyrimidin-2-yl)-N-(5-((1R,2R)-2-cyanocyclobutyl)-4-(2,6-dimethoxyphenyl)-4H-1,2,4-triazol-3-yl)-1-methoxypropane-2-sulfonamide] | 0.018
5 | COc1ncnc(OC)c1-n1c(NS(=O)(=O)[C@@H](C)[C@H](OC)c2ncc(Cl)cn2)nnc1[C@H]1CC[C@@H](C(F)(F)F)CC1 (single isomer, unassigned) [Example 172.0, (1R,2S)-1-(5-chloropyrimidin-2-yl)-N-(4-(4,6-dimethoxypyrimidin-5-yl)-5-((1s,4R)-4-(trifluoromethyl)cyclohexyl)-4H-1,2,4-triazol-3-yl)-1-methoxypropane-2-sulfonamide or (1R,2S)-1-(5-chloropyrimidin-2-yl)-N-(4-(4,6-dimethoxypyrimidin-5-yl)-5-((1r,4S)-4-(trifluoromethyl)cyclohexyl)-4H-1,2,4-triazol-3-yl)-1-methoxypropane-2-sulfonamide] | 0.37
6 | COc1ncnc(OC)c1-n1c(NS(=O)(=O)[C@@H](C)[C@H](OC)c2ncc(Cl)cn2)nnc1[C@H]1CC[C@@H](C(F)(F)F)CC1 (single isomer, unassigned) [Example 173.0, (1R,2S)-1-(5-chloropyrimidin-2-yl)-N-(4-(4,6-dimethoxypyrimidin-5-yl)-5-((1s,4R)-4-(trifluoromethyl)cyclohexyl)-4H-1,2,4-triazol-3-yl)-1-methoxypropane-2-sulfonamide or (1R,2S)-1-(5-chloropyrimidin-2-yl)-N-(4-(4,6-dimethoxypyrimidin-5-yl)-5-((1r,4S)-4-(trifluoromethyl)cyclohexyl)-4H-1,2,4-triazol-3-yl)-1-methoxypropane-2-sulfonamide] | 0.013
7 | COc1ncnc(OC)c1-n1c(NS(=O)(=O)[C@@H](C)[C@H](OC)c2ncc(Cl)cn2)nnc1[C@H]1CC[C@@H](OC)CC1 (single isomer, unassigned) [Example 174.0, (1R,2S)-1-(5-chloropyrimidin-2-yl)-N-(4-(4,6-dimethoxypyrimidin-5-yl)-5-((1s,4R)-4-methoxycyclohexyl)-4H-1,2,4-triazol-3-yl)-1-methoxypropane-2-sulfonamide or (1R,2S)-1-(5-chloropyrimidin-2-yl)-N-(4-(4,6-dimethoxypyrimidin-5-yl)-5-((1r,4S)-4-methoxycyclohexyl)-4H-1,2,4-triazol-3-yl)-1-methoxypropane-2-sulfonamide] | 1.2
8 | COc1ncnc(OC)c1-n1c(NS(=O)(=O)[C@@H](C)[C@H](OC)c2ncc(Cl)cn2)nnc1[C@H]1CC[C@@H](F)CC1 (single isomer, unassigned) [Example 175.0, (1R,2S)-1-(5-chloropyrimidin-2-yl)-N-(4-(4,6-dimethoxypyrimidin-5-yl)-5-((1s,4R)-4-fluorocyclohexyl)-4H-1,2,4-triazol-3-yl)-1-methoxypropane-2-sulfonamide or (1R,2S)-1-(5-chloropyrimidin-2-yl)-N-(4-(4,6-dimethoxypyrimidin-5-yl)-5-((1r,4S)-4-fluorocyclohexyl)-4H-1,2,4-triazol-3-yl)-1-methoxypropane-2-sulfonamide] | 0.059
9 | COc1ncnc(OC)c1-n1c(NS(=O)(=O)[C@@H](C)[C@H](OC)c2ncc(Cl)cn2)nnc1[C@H]1CC[C@@H](F)CC1 (single isomer, unassigned) [Example 176.0, (1R,2S)-1-(5-chloropyrimidin-2-yl)-N-(4-(4,6-dimethoxypyrimidin-5-yl)-5-((1s,4R)-4-fluorocyclohexyl)-4H-1,2,4-triazol-3-yl)-1-methoxypropane-2-sulfonamide or (1R,2S)-1-(5-chloropyrimidin-2-yl)-N-(4-(4,6-dimethoxypyrimidin-5-yl)-5-((1r,4S)-4-fluorocyclohexyl)-4H-1,2,4-triazol-3-yl)-1-methoxypropane-2-sulfonamide] | 0.017
10 | COc1ncnc(OC)c1-n1c(NS(=O)(=O)[C@@H](C)[C@H](OC)c2ncc(Cl)cn2)nnc1[C@H]1C[C@@H](C(F)(F)F)C1 (single isomer, unassigned) [Example 177.0, (1R,2S)-1-(5-chloropyrimidin-2-yl)-N-(4-(4,6-dimethoxypyrimidin-5-yl)-5-((1s,3R)-3-(trifluoromethyl)cyclobutyl)-4H-1,2,4-triazol-3-yl)-1-methoxypropane-2-sulfonamide or (1R,2S)-1-(5-chloropyrimidin-2-yl)-N-(4-(4,6-dimethoxypyrimidin-5-yl)-5-((1r,3S)-3-(trifluoromethyl)cyclobutyl)-4H-1,2,4-triazol-3-yl)-1-methoxypropane-2-sulfonamide] | 0.023
11 | COc1ncnc(OC)c1-n1c(NS(=O)(=O)[C@@H](C)[C@H](OC)c2ncc(Cl)cn2)nnc1[C@H]1C[C@@H](C(F)(F)F)C1 (single isomer, unassigned) [Example 178.0, (1R,2S)-1-(5-chloropyrimidin-2-yl)-N-(4-(4,6-dimethoxypyrimidin-5-yl)-5-((1s,3R)-3-(trifluoromethyl)cyclobutyl)-4H-1,2,4-triazol-3-yl)-1-methoxypropane-2-sulfonamide or (1R,2S)-1-(5-chloropyrimidin-2-yl)-N-(4-(4,6-dimethoxypyrimidin-5-yl)-5-((1r,3S)-3-(trifluoromethyl)cyclobutyl)-4H-1,2,4-triazol-3-yl)-1-methoxypropane-2-sulfonamide] | 0.0065
12 | COc1ncnc(OC)c1-n1c(NS(=O)(=O)[C@@H](C)[C@H](OC)c2ncc(Cl)cn2)nnc1[C@@H]1CC[C@@H]1F (single isomer, unassigned) [Example 179.0, (1R,2S)-1-(5-chloropyrimidin-2-yl)-N-(4-(4,6-dimethoxypyrimidin-5-yl)-5-((1S,2S)-2-fluorocyclobutyl)-4H-1,2,4-triazol-3-yl)-1-methoxypropane-2-sulfonamide or (1R,2S)-1-(5-chloropyrimidin-2-yl)-N-(4-(4,6-dimethoxypyrimidin-5-yl)-5-((1R,2R)-2-fluorocyclobutyl)-4H-1,2,4-triazol-3-yl)-1-methoxypropane-2-sulfonamide] | 0.046
13 | COc1ncnc(OC)c1-n1c(NS(=O)(=O)[C@@H](C)[C@H](OC)c2ncc(Cl)cn2)nnc1[C@@H]1CC[C@@H]1F (single isomer, unassigned) [Example 180.0, (1R,2S)-1-(5-chloropyrimidin-2-yl)-N-(4-(4,6-dimethoxypyrimidin-5-yl)-5-((1S,2S)-2-fluorocyclobutyl)-4H-1,2,4-triazol-3-yl)-1-methoxypropane-2-sulfonamide or (1R,2S)-1-(5-chloropyrimidin-2-yl)-N-(4-(4,6-dimethoxypyrimidin-5-yl)-5-((1R,2R)-2-fluorocyclobutyl)-4H-1,2,4-triazol-3-yl)-1-methoxypropane-2-sulfonamide] | 0.024
14 | COc1ncnc(OC)c1-n1c(NS(=O)(=O)[C@@H](C)[C@H](OC)c2ncc(Cl)cn2)nnc1[C@H]1CC[C@@H]1F (single isomer, unassigned) [Example 181.0, (1R,2S)-1-(5-chloropyrimidin-2-yl)-N-(4-(4,6-dimethoxypyrimidin-5-yl)-5-((1R,2S)-2-fluorocyclobutyl)-4H-1,2,4-triazol-3-yl)-1-methoxypropane-2-sulfonamide or (1R,2S)-1-(5-chloropyrimidin-2-yl)-N-(4-(4,6-dimethoxypyrimidin-5-yl)-5-((1S,2R)-2-fluorocyclobutyl)-4H-1,2,4-triazol-3-yl)-1-methoxypropane-2-sulfonamide] | 0.032
